Where two headings read alike, the source gives them in different places.
Key:
Assay type in all cases: cell-based
Chlamydomonas sp. = assay: Test tube culture inhibition of Chlamydomonas sp., algal units/ml; details: for reduction of number of algal units/ml vs control / inhibition of growth at 10 ppm: 10 PPM; for inhibition of growth at 10 ppm: Chlamydomonas, 120 h, read-out: reduction of number of algal units/ml, % of the control
Procedure: (§1) The algae used in this particular study were Chlamydomonas sp., Chlorella vulgaris, Anabaena sp., and Anabaena flos-aquae. Cultures of these algae were obtained, subcultured, and aqueous stocks of algae in 400 ml BBM were prepared and were used in log phase growth to innoculate test cultures.
(§2) The fatty acids which were tested as algal inhibitors were 9, 10-dihydroxystearic acid, linoleic acid, dodecanoic acid, and ricinoleic acid.
(§3) The test procedure involved placing 15 ml of BBM into 25 ml test tubes and innoculating them with 0.2 ml of algal stock solution. Twenty test tubes were innoculated with each algae. Four of these cultures were used with each concentration of each of the fatty acids. Four tubes from each set served as controls. Four concentrations of the fatty acids were used for each alga. The concentrations studied were 0.5 PPM, 1.0 PPM, 5.0 PPM, and 10.0 PPM.
(§4) Algal cultures were incubated under constant light of about 200 foot-candles and at a temperature of 68° F. Bold's Basal Medium (BBM), a modification of Bristol's solution was the medium in which all the cultures were grown. Bold's Basal Medium was prepared as follows:
(§5) Concentrations of fatty acids and the amount of stock solution used to prepare them were as follows:
(§6) Each test tube contained 15 ml sterile BBM. To this was added an aliquot of 0.2 of algal stock solution. Then the appropriate aliquots of warm acid stock solution were added to the appropriate number of culture tubes. These cultures were then incubated 5 days and at that point were counted. The same cultures were also counted after a 12 day growth period.
(§7) Stock solutions of the fatty acids to be tested as algal inhibitors were made from a stock solution of 5% sodium bicarbonate in glass-distilled water. The 5% sodium bicarbonate stock solution was made by dissolving 150 grams of sodium bicarbonate in 3000 ml of glass-distilled water. To insure complete dissolution, the solution was heated and stirred on a magnetic stirrer hot plate. The warm solution was used in preparing the fatty acid stock solutions.
(§8) Quanitative phytoplankton values were determined using the random field method. Filaments, colonies, and aggregations of cells were recorded as algal units. Each unit consisted of approximately 6 cells. Unicellular algae were counted as separate units. Algal counts were made from each of three duplicate cultures. One ml of the algal sample was placed in a Sedgwick-Rafter counting chamber, which is 50 mm long by 20 mm, wide by 1 mm deep. A Wild Heerbrugg, compound microscope with a Whipple grid eyepiece was used to determine quantitative algae values.
(§9) One ml of the algal solution was placed in the counting chamber, and two drops of methyl cellulose were added to minimize the movement of Chlamydomonas sp. Ten random fields were counted and all organisms within the Whipple grid field were enumerated.
(§10) The following formula used to calculate the numbers per milliliter from the field counts: [formula] where: C=number of organisms counted,
(§11) The area of the Whipple grid used was 0.46 mm^2, and the depth of a field was 1 mm. Results of the counts were reported as algal units/ml.

Anabaena sp. = assay: Test tube culture inhibition of Anabaena sp., algal units/ml; details: for inhibition of growth at 10 ppm: read-out: reduction of algal units/ml, % of the control
Procedure: as §1, §2, §3, §4, §5, §6, §7, §8, §9, §10, §11

Anabaena flos-aquae = assay: Test tube culture inhibition of Anabaena flos-aquae, algal units/ml; details: for inhibition of growth at 10 ppm: Dolichospermum flos-aquae, 120 h, read-out: reduction of algal units/ml of the control
Procedure: as §1, §2, §3, §4, §5, §6, §7, §8, §9, §10, §11

Chlorella vulgaris = assay: Test tube culture inhibition of Chlorella vulgaris, algal units/ml
Procedure: as §1, §2, §3, §4, §5, §6, §7, §8, §9, §10, §11

Work on CCCCCCCCC(O)C(O)CCCCCCCC(=O)O (centres unmarked) [9,10-Dihydroxystearic Acid, 9,10-dihydroxystearic acid] yielded an Algal units/ml (Chlamydomonas sp.; 5 days, 0.5 PPM) of 10217 units/ml, an Algal units/ml (Chlamydomonas sp.; 5 days, 1.0 PPM) of 10436 units/ml and an Algal units/ml (Chlamydomonas sp.; 5 days, 5.0 PPM) of 11304 units/ml. For the same compound, the “reduction of number of algal units/ml vs control” value (Chlamydomonas sp.; 5 days) was 5,000 algal units/ml, the Algal units/ml (Chlamydomonas sp.; 5 days, 10.0 PPM) was 6522 units/ml and the Algal units/ml (Chlamydomonas sp.; 12 days, 0.5 PPM) was 47826 units/ml. For the same compound, the Algal units/ml (Chlamydomonas sp.; 12 days, 1.0 PPM) was 46739 units/ml, the Algal units/ml (Chlamydomonas sp.; 12 days, 5.0 PPM) was 50000 units/ml and the Algal units/ml (Chlamydomonas sp.; 12 days, 10.0 PPM) was 53478 units/ml. It also gave an inhibition of growth at 10 ppm (Chlamydomonas sp.; 5 days) of 43.4%, an Algal units/ml (Anabaena sp.; 5 days, 0.5 PPM) of 34130 units/ml and an Algal units/ml (Anabaena sp.; 5 days, 1.0 PPM) of 38043 units/ml. For the same compound, the Algal units/ml (Anabaena sp.; 5 days, 5.0 PPM) was 30217 units/ml, the Algal units/ml (Anabaena sp.; 5 days, 10.0 PPM) was 23261 units/ml and the “inhibition” value (Anabaena sp.; 5 days, 10.0 PPM) was “effective as a inhibitor”. It also gave an inhibition of growth at 10 ppm (Anabaena sp.; 288 h, 12 days, 10 PPM) of 16.6%, an Algal units/ml (Anabaena sp.; 12 days, 0.5 PPM) of 158043 units/ml and an Algal units/ml (Anabaena sp.; 12 days, 1.0 PPM) of 166739 units/ml. It also gave an Algal units/ml (Anabaena sp.; 12 days, 5.0 PPM) of 106957 units/ml, an Algal units/ml (Anabaena sp.; 12 days, 10.0 PPM) of 98473 units/ml and an Algal units/ml (Anabaena flos-aquae; 5 days, 0.5 PPM) of 4348 units/ml. For the same compound, the Algal units/ml (Anabaena flos-aquae; 5 days, 1.0 PPM) was 4348 units/ml, the “effect on algal growth” value (Anabaena flos-aquae; 5 days, 1.0 PPM and less) was “stimulated” and the Algal units/ml (Anabaena flos-aquae; 5 days, 5.0 PPM) was 2174 units/ml. For the same compound, the Algal units/ml (Anabaena flos-aquae; 5 days, 10.0 PPM) was 217 units/ml, the Algal units/ml (Anabaena flos-aquae; 12 days, 0.5 PPM) was 18478 units/ml and the Algal units/ml (Anabaena flos-aquae; 12 days, 1.0 PPM) was 13478 units/ml. The Algal units/ml (Anabaena flos-aquae; 12 days, 5.0 PPM) was 9130 units/ml, the Algal units/ml (Anabaena flos-aquae; 12 days, 10.0 PPM) was 3261 units/ml and the “effect on algal growth” value (Anabaena flos-aquae; 12 days, all concentrations) was “inhibitory effect”. It also gave an inhibition of growth at 10 ppm (Anabaena flos-aquae; 5 days) of 90.9%.

CCCCCCCCCCCC(=O)O [Dodecanoic Acid, dodecanoic acid] was tested, and the Algal units/ml (Chlorella vulgaris; 5 days, 0.5 PPM) was 8913 units/ml, the Algal units/ml (Chlorella vulgaris; 5 days, 1.0 PPM) was 11304 units/ml and the Algal units/ml (Chlorella vulgaris; 5 days, 5.0 PPM) was 11304 units/ml. For the same compound, the Algal units/ml (Chlorella vulgaris; 5 days, 10.0 PPM) was 10435 units/ml, the Algal units/ml (Chlorella vulgaris; 12 days, 0.5 PPM) was 217391 units/ml and the Algal units/ml (Chlorella vulgaris; 12 days, 1.0 PPM) was 217391 units/ml. The Algal units/ml (Chlorella vulgaris; 12 days, 5.0 PPM) was 217391 units/ml, the Algal units/ml (Chlorella vulgaris; 12 days, 10.0 PPM) was 217391 units/ml and the Algal units/ml (Chlamydomonas sp.; 5 days, 0.5 PPM) was 10652 units/ml. It also gave an Algal units/ml (Chlamydomonas sp.; 5 days, 1.0 PPM) of 10435 units/ml, an Algal units/ml (Chlamydomonas sp.; 5 days, 5.0 PPM) of 12609 units/ml and an Algal units/ml (Chlamydomonas sp.; 5 days, 10.0 PPM) of 11957 units/ml. It also gave an Algal units/ml (Chlamydomonas sp.; 12 days, 0.5 PPM) of 47174 units/ml, an Algal units/ml (Chlamydomonas sp.; 12 days, 1.0 PPM) of 48696 units/ml and an Algal units/ml (Chlamydomonas sp.; 12 days, 5.0 PPM) of 46304 units/ml. For the same compound, the Algal units/ml (Chlamydomonas sp.; 12 days, 10.0 PPM) was 50217 units/ml, the inhibition of growth at 10 ppm (Anabaena sp.; 120 h) was 22.7% and the Algal units/ml (Anabaena sp.; 5 days, 0.5 PPM) was 40435 units/ml. The Algal units/ml (Anabaena sp.; 5 days, 1.0 PPM) was 32609 units/ml, the Algal units/ml (Anabaena sp.; 5 days, 5.0 PPM) was 28261 units/ml and the Algal units/ml (Anabaena sp.; 5 days, 10.0 PPM) was 28696 units/ml. The inhibition of growth at 10 ppm (Anabaena sp.; 288 h) was 22.7%, the Algal units/ml (Anabaena sp.; 12 days, 0.5 PPM) was 139348 units/ml and the Algal units/ml (Anabaena sp.; 12 days, 1.0 PPM) was 135217 units/ml. The Algal units/ml (Anabaena sp.; 12 days, 5.0 PPM) was 92826 units/ml, the Algal units/ml (Anabaena sp.; 12 days, 10.0 PPM) was 91204 units/ml and the “effect on algal growth” value (Anabaena flos-aquae; 5 and 12 days, all concentrations) was “some inhibitory effects”. The Algal units/ml (Anabaena flos-aquae; 5 days, 0.5 PPM) was 1087 units/ml, the Algal units/ml (Anabaena flos-aquae; 5 days, 1.0 PPM) was 2174 units/ml and the Algal units/ml (Anabaena flos-aquae; 5 days, 5.0 PPM) was 2714 units/ml. For the same compound, the Algal units/ml (Anabaena flos-aquae; 5 days, 10.0 PPM) was 2174 units/ml, the Algal units/ml (Anabaena flos-aquae; 12 days, 0.5 PPM) was 20435 units/ml and the Algal units/ml (Anabaena flos-aquae; 12 days, 1.0 PPM) was 7609 units/ml. The Algal units/ml (Anabaena flos-aquae; 12 days, 5.0 PPM) was 6739 units/ml and the Algal units/ml (Anabaena flos-aquae; 12 days, 10.0 PPM) was 6522 units/ml.

Work on CCCCC/C=C\C/C=C\CCCCCCCC(=O)O [Linoleic Acid, linoleic acid] yielded an Algal units/ml (Chlorella vulgaris; 5 days, 0.5 PPM) of 8697 units/ml, an Algal units/ml (Chlorella vulgaris; 5 days, 1.0 PPM) of 12174 units/ml and an Algal units/ml (Chlorella vulgaris; 5 days, 5.0 PPM) of 10870 units/ml. It also gave an Algal units/ml (Chlorella vulgaris; 5 days, 10.0 PPM) of 11304 units/ml, an Algal units/ml (Chlorella vulgaris; 12 days, 0.5 PPM) of 195652 units/ml and an Algal units/ml (Chlorella vulgaris; 12 days, 1.0 PPM) of 239130 units/ml. For the same compound, the Algal units/ml (Chlorella vulgaris; 12 days, 5.0 PPM) was 304348 units/ml, the Algal units/ml (Chlorella vulgaris; 12 days, 10.0 PPM) was 195652 units/ml and the Algal units/ml (Chlamydomonas sp.; 5 days, 0.5 PPM) was 11087 units/ml. The Algal units/ml (Chlamydomonas sp.; 5 days, 1.0 PPM) was 12609 units/ml, the Algal units/ml (Chlamydomonas sp.; 5 days, 5.0 PPM) was 12391 units/ml and the “reduction of number of algal units/ml vs control” value (Chlamydomonas sp.; 5 days) was 5,000 algal units/ml. For the same compound, the Algal units/ml (Chlamydomonas sp.; 5 days, 10.0 PPM) was 6522 units/ml, the Algal units/ml (Chlamydomonas sp.; 12 days, 0.5 PPM) was 45652 units/ml and the Algal units/ml (Chlamydomonas sp.; 12 days, 1.0 PPM) was 52174 units/ml. For the same compound, the Algal units/ml (Chlamydomonas sp.; 12 days, 5.0 PPM) was 50000 units/ml, the Algal units/ml (Chlamydomonas sp.; 12 days, 10.0 PPM) was 51087 units/ml and the inhibition of growth at 10 ppm (Chlamydomonas sp.; 5 days) was 43.4%. For the same compound, the inhibition of growth at 10 ppm (Anabaena sp.; 120 h, 5 days, 10.0 PPM) was 38.1%, the Algal units/ml (Anabaena sp.; 5 days, 0.5 PPM) was 45217 units/ml and the Algal units/ml (Anabaena sp.; 5 days, 1.0 PPM) was 46957 units/ml. For the same compound, the Algal units/ml (Anabaena sp.; 5 days, 5.0 PPM) was 32609 units/ml, the Algal units/ml (Anabaena sp.; 5 days, 10.0 PPM) was 19783 units/ml and the “reduction in algal units/ml vs control” value (Anabaena sp.; 5 days, 10.0 PPM) was 12,174 algal units/ml. It also gave an inhibition of growth at 10 ppm (Anabaena sp.; 288 h, 12 days, 10 PPM) of 19.5%, an Algal units/ml (Anabaena sp.; 12 days, 0.5 PPM) of 114565 units/ml and an Algal units/ml (Anabaena sp.; 12 days, 1.0 PPM) of 135217 units/ml. The Algal units/ml (Anabaena sp.; 12 days, 5.0 PPM) was 98261 units/ml, the Algal units/ml (Anabaena sp.; 12 days, 10.0 PPM) was 95000 units/ml and the Algal units/ml (Anabaena flos-aquae; 5 days, 0.5 PPM) was 1087 units/ml. The “effect on algal growth” value (Anabaena flos-aquae; 5 days, 0.5 PPM) was “inhibition”, the Algal units/ml (Anabaena flos-aquae; 5 days, 1.0 PPM) was 3261 units/ml and the “effect on algal growth” value (Anabaena flos-aquae; 5 days, 1.0 PPM) was “stimulation”. For the same compound, the Algal units/ml (Anabaena flos-aquae; 5 days, 5.0 PPM) was 1087 units/ml, the Algal units/ml (Anabaena flos-aquae; 5 days, 10.0 PPM) was 217 units/ml and the Algal units/ml (Anabaena flos-aquae; 12 days, 0.5 PPM) was 14565 units/ml. The Algal units/ml (Anabaena flos-aquae; 12 days, 1.0 PPM) was 8261 units/ml, the Algal units/ml (Anabaena flos-aquae; 12 days, 5.0 PPM) was 4130 units/ml and the Algal units/ml (Anabaena flos-aquae; 12 days, 10.0 PPM) was 3969 units/ml. The “effect on algal growth” value (Anabaena flos-aquae; 12 days, all concentrations) was “inhibitory effect” and the inhibition of growth at 10 ppm (Anabaena flos-aquae; 5 days) was 90.9%.
